Data: patent publication US6465221B1, “Method of producing a taxane-type diterpene” (Mitsui Chemicals, Inc., priority 1994, dated 2002)

Legend:
[1] = tested on: cultured cells of Taxus baccata LINN; assay: Taxus baccata cell culture with cyclic polysaccharides; format: cell-based
Description: A part of stem of Taxus baccata LINN which had been previously sterilized with 2% antiformin solution or 70% ethanol solution or the like, was placed on solid Woody Plant Medium (containing gelan gum of 0.25% by weight) to which naphthalenacetic acid had been added to give the concentration of 10^−5 M, and static culture was carried out at 25° C. in a dark place to provide callus of Taxus baccata LINN. 0.1 g (fresh weight) of the callus was inoculated to a well having an inner diameter of 18 mm, containing 1 ml of liquid Woody Plant Medium to which the above-mentioned component was added to give the same concentration and shake culture was carried out with a rotary shaker (amplification of 25 mm, 120 rpm) and the callus was subcultured in every 28 days to accelerate the growth rate thereof.
One gram (fresh weight) of the cultured cells thus obtained was inoculated to an Erlenmeyer flask containing 20 ml of liquid Woody Plant Medium to which the above-mentioned component was added to give the same concentration, and shake culture was carried out at 25° C. for 14 days. […]
After completing the culture, cultured cells of Taxus baccata LINN were harvested by filtration and lyophilized, then the dry weight was measured to obtain the yeild thereof per liter of the liquid medium.

[2] = tested on: cultured cells of Taxus baccata LINN; assay: Taxus baccata cell culture with cyclic polysaccharides and methyl ester of jasmonic acid; format: cell-based
Description: […] After completing the culture, cultured cells of Taxus baccata LINN were harvested by filtration and lyophilized, then the dry weight was measured to obtain the yeild thereof per liter of the liquid medium.

[3] = tested on: cultured cells of Taxus media; settings: α-linolenic acid, concentration not given, 14 days
Description: Two grams (fresh weight) of the cultured cells thus obtained by liquid culture was inoculated to 20 ml of liquid Woody Plant Medium (contained in an Erlenmeyer flask of 100 ml) to which α-linolenic acid of 0.01-1000 μM (dissolved in ethanol) was added, and shake culture was carried out at 25° C. in a dark place with a rotary shaker (amplification of 25 mm, 100 rpm).
After completing the culture for 14 days, cultured cells were harvested by filtration and lyophilized, then the dry weight was measured to obtain the yield thereof. Taxane-type diterpenes were extracted from the dried callus and the culture medium with methanol or the like, and they were determined by comparing with standard taxol using high performance liquid chromatography to measure the yield of taxol.

[4] = tested on: cultured cells of Taxus baccata LINN; assay: Taxus baccata cell culture with fatty acids or natural oil; format: cell-based; settings: 14 days
Description: One gram (fresh weight) of the callus was inoculated to an Erlenmeyer flask containing 20 ml of liquid Woody Plant Medium and shake culture was carried out with a rotary shaker (amplification of 25 mm, 100 rpm) and the callus was subcultured in every 21 days to accelerate the growth rate thereof.

[5] = concentration of β-cyclodextrin 0.01 mM
[6] = concentration of β-cyclodextrin 0.1 mM
[7] = concentration of β-cyclodextrin 1 mM
[8] = concentration of β-cyclodextrin 10 mM
[9] = β-cyclodextrin 0.01 mM + methyl ester of jasmonic acid 100 μM
[10] = β-cyclodextrin 0.1 mM + methyl ester of jasmonic acid 100 μM
[11] = β-cyclodextrin 1 mM + methyl ester of jasmonic acid 100 μM
[12] = β-cyclodextrin 10 mM + methyl ester of jasmonic acid 100 μM
[13] = concentration of α-linolenic acid 0.01 μM
[14] = concentration of α-linolenic acid 0.1 μM
[15] = concentration of α-linolenic acid 1 μM
[16] = concentration of α-linolenic acid 10 μM
[17] = concentration of α-linolenic acid 100 μM
[18] = concentration of α-linolenic acid 500 μM
[19] = concentration of α-linolenic acid 1000 μM

## OC[C@H]1O[C@@H]2O[C@H]3[C@H](O)[C@@H](O)[C@@H](O[C@H]4[C@H](O)[C@@H](O)[C@@H](O[C@H]5[C@H](O)[C@@H](O)[C@@H](O[C@H]6[C@H](O)[C@@H](O)[C@@H](O[C@H]7[C@H](O)[C@@H](O)[C@@H](O[C@H]8[C@H](O)[C@@H](O)[C@@H](O[C@H]1[C@H](O)[C@H]2O)O[C@@H]8CO)O[C@@H]7CO)O[C@@H]6CO)O[C@@H]5CO)O[C@@H]4CO)O[C@@H]3CO [Example 13, β-cyclodextrin]
[1]; [5]
  yeild of cultured cells: 19.0 g/L
  yield of baccatin III: 2.5 mg/L
  yield of cephalomannine: 0.7 mg/L
  yield of taxol: 4.0 mg/L
[1]; [6]
  yeild of cultured cells: 19.1 g/L
  yield of baccatin III: 3.0 mg/L
  yield of cephalomannine: 2.6 mg/L
  yield of taxol: 4.2 mg/L
[1]; [7]
  yeild of cultured cells: 20.1 g/L
  yield of baccatin III: 4.2 mg/L
  yield of cephalomannine: 3.0 mg/L
  yield of taxol: 6.5 mg/L
[1]; [8]
  yeild of cultured cells: 20.1 g/L
  yield of baccatin III: 5.0 mg/L
  yield of cephalomannine: 2.2 mg/L
  yield of taxol: 10.5 mg/L
[2]; [9]
  yield of baccatin III: 54.6 mg/L
  yield of cephalomannine: 8.0 mg/L
  yield of cultured cells: 15.6 g/L
  yield of taxol: 28.5 mg/L
[2]; [10]
  yield of baccatin III: 62.6 mg/L
  yield of cephalomannine: 9.6 mg/L
  yield of cultured cells: 16.3 g/L
  yield of taxol: 35.4 mg/L
[2]; [11]
  yield of baccatin III: 76.0 mg/L
  yield of cephalomannine: 10.1 mg/L
  yield of cultured cells: 15.4 g/L
  yield of taxol: 42.3 mg/L
[2]; [12]
  yield of baccatin III: 54.2 mg/L
  yield of cephalomannine: 12.5 mg/L
  yield of cultured cells: 17.3 g/L
  yield of taxol: 64.4 mg/L

## CC/C=C\C/C=C\C/C=C\CCCCCCCC(=O)O [Example 26, α-linolenic acid]
[3]
  yield of cells: 20 g/L
  yield of taxane-type diterpenes, baccatin III: 10 mg/L
  yield of taxane-type diterpenes, cephalomannine: 2 mg/L
  yield of taxane-type diterpenes, taxol: 22 mg/L
[4]; [13]
  yield of cells: 20 g/L
  yield of taxane-type diterpenes, baccatin III: 2 mg/L
  yield of taxane-type diterpenes, cephalomannine: 2 mg/L
  yield of taxane-type diterpenes, taxol: 5 mg/L
[4]; [14]
  yield of cells: 20 g/L
  yield of taxane-type diterpenes, baccatin III: 2 mg/L
  yield of taxane-type diterpenes, cephalomannine: 2 mg/L
  yield of taxane-type diterpenes, taxol: 6 mg/L
[4]; [15]
  yield of cells: 20 g/L
  yield of taxane-type diterpenes, baccatin III: 2 mg/L
  yield of taxane-type diterpenes, cephalomannine: 2 mg/L
  yield of taxane-type diterpenes, taxol: 6 mg/L
[4]; [16]
  yield of cells: 20 g/L
  yield of taxane-type diterpenes, baccatin III: 3 mg/L
  yield of taxane-type diterpenes, cephalomannine: 4 mg/L
  yield of taxane-type diterpenes, taxol: 8 mg/L
[4]; [17]
  yield of cells: 19 g/L
  yield of taxane-type diterpenes, baccatin III: 6 mg/L
  yield of taxane-type diterpenes, cephalomannine: 4 mg/L
  yield of taxane-type diterpenes, taxol: 19 mg/L
[4]; [18]
  yield of cells: 14 g/L
  yield of taxane-type diterpenes, baccatin III: 4 mg/L
  yield of taxane-type diterpenes, cephalomannine: 3 mg/L
  yield of taxane-type diterpenes, taxol: 12 mg/L
[4]; [19]
  yield of cells: 12 g/L
  yield of taxane-type diterpenes, baccatin III: 2 mg/L
  yield of taxane-type diterpenes, cephalomannine: 2 mg/L
  yield of taxane-type diterpenes, taxol: 7 mg/L
